The source made the active and inactive calls. No cut-off for these calls is given here.
Assays:
[1] = system: RT-112; experiment: Inhibition of colony formation in human RT112 cells expressing p53 mutant at 24.50 to 28.74 uM after 3 to 24 hrs by crystal violet staining based assay; assay type: functional, cell-based
[2] = system: RT-112; experiment: Antiproliferative activity against human RT112 cells expressing p53 mutant assessed as decrease in cell viability after 24 hrs by MTT assay; assay type: functional, cell-based; conditions: RT-112, 24 h
[3] = system: EJ; experiment: Effect on acetylated-p53 expression in human MGHU1 cells after 3 to 24 hrs by Western blot analysis; assay type: functional, cell-based
[4] = biological target: T1, NAD-dependent protein deacetylase sirtuin-1 (Homo sapiens) (UniProt Q96EB6); experiment: Inhibition of SIRT1 (unknown origin) at 10 uM using acetylated peptide p53K382 as substrate preincubated for 15 mins followed by substrate addition and measured after 40 mins by fluorescence assay
T1 sequence (whole entry): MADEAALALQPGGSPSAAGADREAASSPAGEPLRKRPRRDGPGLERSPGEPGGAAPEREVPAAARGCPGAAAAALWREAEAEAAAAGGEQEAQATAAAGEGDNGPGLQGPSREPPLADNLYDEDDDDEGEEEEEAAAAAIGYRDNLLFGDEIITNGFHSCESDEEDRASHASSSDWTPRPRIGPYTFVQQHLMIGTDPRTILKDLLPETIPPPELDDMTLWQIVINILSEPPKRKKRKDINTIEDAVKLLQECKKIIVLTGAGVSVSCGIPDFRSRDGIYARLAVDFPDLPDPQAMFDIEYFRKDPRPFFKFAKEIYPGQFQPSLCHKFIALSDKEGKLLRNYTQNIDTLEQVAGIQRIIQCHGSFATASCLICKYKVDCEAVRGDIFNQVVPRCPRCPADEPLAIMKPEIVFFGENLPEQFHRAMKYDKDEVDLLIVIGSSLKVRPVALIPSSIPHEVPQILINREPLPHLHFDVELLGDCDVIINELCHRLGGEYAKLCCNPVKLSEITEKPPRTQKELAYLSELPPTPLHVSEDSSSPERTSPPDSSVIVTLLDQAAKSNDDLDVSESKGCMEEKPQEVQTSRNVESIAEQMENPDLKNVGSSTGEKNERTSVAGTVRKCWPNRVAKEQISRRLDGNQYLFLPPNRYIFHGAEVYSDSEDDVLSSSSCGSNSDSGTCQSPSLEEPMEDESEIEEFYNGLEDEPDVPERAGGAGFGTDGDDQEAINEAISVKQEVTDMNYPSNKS

[5] = Cytotoxicity against human C3PV cells assessed as decrease in cell viability after 3 hrs by MTT assay; assay type: cell-based
[6] = system: EJ; experiment: Antiproliferative activity against human MGHU1 cells expressing wild-type p53 assessed as decrease in cell viability after 24 hrs by MTT assay; assay type: functional, cell-based
[7] = system: EJ; experiment: Antiproliferative activity against human MGHU1 cells expressing wild-type p53 assessed as decrease in cell viability after 3 hrs by MTT assay; assay type: functional, cell-based
[8] = system: RT-112; experiment: Antiproliferative activity against human RT112 cells expressing p53 mutant assessed as decrease in cell viability after 3 hrs by MTT assay; assay type: functional, cell-based; conditions: RT-112, 3 h
[9] = Cytotoxicity against human C3PV cells assessed as decrease in cell viability after 24 hrs by MTT assay; assay type: cell-based
[10] = biological target: T1, NAD-dependent protein deacetylase sirtuin-1 (Homo sapiens); experiment: Inhibition of SIRT1 in human MGHU1 cells assessed as induction of p53 after 3 to 24 hrs by Western blot analysis; assay type: cell-based
[11] = system: EJ; experiment: Effect on acetylated-histone H3 expression in human MGHU1 cells after 3 to 24 hrs by Western blot analysis; assay type: functional, cell-based
[12] = system: EJ; experiment: Inhibition of colony formation in human MGHU1 cells expressing wild-type p53 at […] uM after 3 to 24 hrs by crystal violet staining based assay; assay type: functional, cell-based
[13] = biological target: T1, NAD-dependent protein deacetylase sirtuin-1 (Homo sapiens); experiment: Inhibition of SIRT1 in human MGHU1 cells assessed as stabilization of p53 by measuring increase in p53 acetylation after 3 to 24 hrs by Western blot analysis; assay type: cell-based

| SMILES | inhibition [1] | IC50 [2] [µM] | Activity [3] | inhibition [4] | IC50 [5] [µM] | IC50 [6] [µM] | IC50 [7] [µM] | IC50 [8] [µM] | IC50 [9] [µM] | inhibition [10] | Activity [11] | inhibition [12] | inhibition [13] |
| --- | --- | --- | --- | --- | --- | --- | --- | --- | --- | --- | --- | --- | --- |
| CCCCNc1nc(-c2ccccc2)c(Cc2c(O)ccc3ccccc23)c(=O)[nH]1 | Active | 1.6 | inactive | inactive | 47.6 | 28.7 | 24.5 | 1.9 | > 300 | inactive | inactive | Active | inactive |
| O=c1[nH]c(=S)[nH]c(-c2ccccc2)c1Cc1c(O)ccc2ccccc12 [CAMBINOL] | – | 125 | – | – | 39.9 | 242 | 95.9 | 37.9 | > 300 | – | – | – | – |
| O=c1[nH]c(NCCc2ccc(O)c(O)c2)nc(-c2ccccc2)c1Cc1c(O)ccc2ccccc12 | – | 79.3 | – | inactive | > 300 | 71.7 | 12.6 | 35.9 | > 300 | – | – | – | – |
| O=c1[nH]c(NCCO)nc(-c2ccccc2)c1Cc1c(O)ccc2ccccc12 | – | 96.6 | – | inactive | > 300 | > 300 | 282 | 7.2 | > 300 | – | – | – | – |
| CCN(CC)c1nc(-c2ccccc2)c(Cc2c(O)ccc3ccccc23)c(=O)[nH]1 | – | 155 | – | inactive | > 300 | 79.7 | 15.4 | 32.2 | > 300 | – | – | – | – |
| C#CCNc1nc(-c2ccccc2)c(Cc2c(O)ccc3ccccc23)c(=O)[nH]1 | – | 130 | – | inactive | > 300 | 148 | 16.8 | 91.2 | > 300 | – | – | – | – |
| COc1ccc(Nc2nc(-c3ccccc3)c(Cc3c(O)ccc4ccccc34)c(=O)[nH]2)cc1 | – | 138 | – | inactive | > 300 | 63.7 | 160 | 18.5 | > 300 | – | – | – | – |
| O=c1[nH]c(Nc2ccc(O)cc2)nc(-c2ccccc2)c1Cc1c(O)ccc2ccccc12 | – | 265 | – | inactive | > 300 | 92.4 | 90.9 | > 300 | > 300 | – | – | – | – |
| O=c1[nH]c(NCCc2ccc(O)cc2)nc(-c2ccccc2)c1Cc1c(O)ccc2ccccc12 | – | 106 | – | inactive | 145 | 82.1 | 22.1 | 48.9 | > 300 | – | – | – | – |

Reference: ChEMBL document CHEMBL4308863, “Oxidative nucleophilic substitution selectively produces cambinol derivatives with antiproliferative activity on bladder cancer cell lines” (Bioorg Med Chem Lett, 2019)
